Assay results from patent US12545669B2, “Cycloalkyl and heterocycloalkyl benzisoxazole sulfonamide derivatives” (Pfizer Inc., priority 2019, dated 2026).

Tests used:
[1] = target: KAT6A (Homo sapiens (Human), UniProt Q92794); experiment: KAT assay protocol (SAMDI mass spectrometry), KAT6A; format: biochemical; details: for inhibition at 1 µM: 1 μM compound; for IC50: KAT6A IC50 at 1 μM AcCoA, 1 μM AcCoA; for Ki: KAT6A Ki at 10 μM AcCoA, 10 μM AcCoA, Morrison equation
Procedure: Biological Assay Section 1 KAT Assay Protocol:
A. Compound Preparation • 1. Prepare 10 mM stock solutions in 100% DMSO from solid material • 2. Serial dilute 10 mM, 1 mM or 0.1 mM compound stocks 3-fold in 100% DMSO for 11-point dose response
B. Reagent Preparation • 1. Prepare 1× assay buffer containing 10 mM Tris HCL pH 8.0, 2.5 mM NaCl, 0.5 mM EDTA, 0.005% BSG and 0.02% Tween-20 • 2. Dilute Histone peptide (CPC Scientific) and AcCoA (Sigma) together in assay buffer to 2×. • 3. Dilute KAT enzyme in assay buffer to 2×.
C. Enzyme Reaction • 1. Final reaction conditions for each KAT assay in a 20 ul assay reaction volume: • i. […] Add 0.5 ul of diluted compound to the assay plate (384-well V-bottom polypropylene plates) or 0.5 ul of DMSO for control wells. • 3. Add 10 ul of 2× Histone peptide/2× AcCoA mix to the assay plate. • 4. Add 10 ul of 2× enzyme to the assay plate. • 5. Stop the reaction after the indicated time with the addition of 2 ul of 5% formic acid • 6. Each reaction was analyzed using self-assembled monolayer desorption/ionization time-of-flight mass spectrometry (Mrksich, Milan (2008) Mass Spectrometry of Self-Assembled Monolayers: A New Tool for Molecular Surface Science ACS Nano 2008 2 (1), 7-18; SAMDI Tech, Inc. (Chicago, IL)). • 7. Area under the curve (AUC) for both substrate and product peaks was determined for KAT6A at M.W. 2723 [Substrate+H]^+ and 2765 [Product+H]^+ with a +/−1 Da tolerance, respectively. • 8. Percent conversion to product was calculated by: AUCProduct/(AUCSubstrate+AUCProduct).
D. Data Analysis • 1. IC50 values were determined by fitting the % conversion at each inhibitor concentration to the 4-parameter IC50 equation using Pfizer proprietary curve fitting software. • 2. Ki values were determined by fitting the % conversion at each inhibitor concentration to the Morrison equation for tightbinding competitive inhibitors using Pfizer proprietary curve fitting software. Materials
KAT enzymes were expressed using a baculovirus expression system and purified at Pfizer, La Jolla. Histone H3 (1-21) peptide ([…], SEQ ID NO:3) was purchased from CPC Scientific (Sunnyvale, CA). Acetyl coenzyme A was purchased from Sigma-Aldrich (St. Louis, MO). All other biochemical reagents were purchased from Sigma-Aldrich or ThermoFisher Scientific (Waltham, MA).
[…] 10 ul of 2× Histone peptide/AcCoA mix was added to a 384-well V-bottom polypropylene assay plate containing 0.5 ul of serially diluted test compound in 100% dimethyl sulfoxide (DMSO). To start the reaction, 10 ul of 2× enzyme solution was added to the assay plate. KAT assays were terminated after 30-60 minutes with the addition of 2 ul of 5% formic acid. KAT6A used histone H3 (1-21) peptide. The final enzyme concentration for KAT6A was 15 nM. Each reaction was analyzed using self-assembled monolayer desorption/ionization time-of-flight mass spectrometry (Mrksich, Milan (2008) Mass Spectrometry of Self-Assembled Monolayers: A New Tool for Molecular Surface Science ACS Nano 2008 2 (1), 7-18; SAMDI Tech, Inc. (Chicago, IL)).
Area under the curve (AUC) for both substrate and product peaks was determined for KAT6A at M.W. 2723 [Substrate+H]^+ and 2765 [Product+H]^+ with a +/−1 Da tolerance, respectively. Percent conversion to product was calculated by: AUCProduct/(AUCSubstrate+AUCProduct). IC50 values were determined by fitting the % conversion at each inhibitor concentration to the 4-parameter IC50 equation using Pfizer proprietary curve fitting software. Ki values were determined by fitting the % conversion at each inhibitor concentration to the Morrison equation for tightbinding competitive inhibitors using Pfizer proprietary curve fitting software.

[2] = target: TIP60-KAT5 (Homo sapiens (Human), UniProt Q92993); experiment: biochemical
[3] = target: MOZ-KAT6A (Homo sapiens (Human), UniProt Q92794); experiment: biochemical
[4] = target: HBO1-KAT7 (Homo sapiens (Human), UniProt O95251); experiment: biochemical
HBO1-KAT7, sequence (O95251 other isoform, or with tags, fused parts or gaps): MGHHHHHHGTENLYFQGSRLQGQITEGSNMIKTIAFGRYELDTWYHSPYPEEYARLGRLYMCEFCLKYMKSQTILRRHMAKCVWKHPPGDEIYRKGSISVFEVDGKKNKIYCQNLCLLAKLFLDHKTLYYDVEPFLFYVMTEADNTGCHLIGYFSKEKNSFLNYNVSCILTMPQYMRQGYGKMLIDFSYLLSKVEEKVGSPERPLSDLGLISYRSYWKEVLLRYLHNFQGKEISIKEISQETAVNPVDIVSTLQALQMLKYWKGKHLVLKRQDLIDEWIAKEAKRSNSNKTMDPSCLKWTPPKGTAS

KAT6A, sequence (Q92794 whole entry): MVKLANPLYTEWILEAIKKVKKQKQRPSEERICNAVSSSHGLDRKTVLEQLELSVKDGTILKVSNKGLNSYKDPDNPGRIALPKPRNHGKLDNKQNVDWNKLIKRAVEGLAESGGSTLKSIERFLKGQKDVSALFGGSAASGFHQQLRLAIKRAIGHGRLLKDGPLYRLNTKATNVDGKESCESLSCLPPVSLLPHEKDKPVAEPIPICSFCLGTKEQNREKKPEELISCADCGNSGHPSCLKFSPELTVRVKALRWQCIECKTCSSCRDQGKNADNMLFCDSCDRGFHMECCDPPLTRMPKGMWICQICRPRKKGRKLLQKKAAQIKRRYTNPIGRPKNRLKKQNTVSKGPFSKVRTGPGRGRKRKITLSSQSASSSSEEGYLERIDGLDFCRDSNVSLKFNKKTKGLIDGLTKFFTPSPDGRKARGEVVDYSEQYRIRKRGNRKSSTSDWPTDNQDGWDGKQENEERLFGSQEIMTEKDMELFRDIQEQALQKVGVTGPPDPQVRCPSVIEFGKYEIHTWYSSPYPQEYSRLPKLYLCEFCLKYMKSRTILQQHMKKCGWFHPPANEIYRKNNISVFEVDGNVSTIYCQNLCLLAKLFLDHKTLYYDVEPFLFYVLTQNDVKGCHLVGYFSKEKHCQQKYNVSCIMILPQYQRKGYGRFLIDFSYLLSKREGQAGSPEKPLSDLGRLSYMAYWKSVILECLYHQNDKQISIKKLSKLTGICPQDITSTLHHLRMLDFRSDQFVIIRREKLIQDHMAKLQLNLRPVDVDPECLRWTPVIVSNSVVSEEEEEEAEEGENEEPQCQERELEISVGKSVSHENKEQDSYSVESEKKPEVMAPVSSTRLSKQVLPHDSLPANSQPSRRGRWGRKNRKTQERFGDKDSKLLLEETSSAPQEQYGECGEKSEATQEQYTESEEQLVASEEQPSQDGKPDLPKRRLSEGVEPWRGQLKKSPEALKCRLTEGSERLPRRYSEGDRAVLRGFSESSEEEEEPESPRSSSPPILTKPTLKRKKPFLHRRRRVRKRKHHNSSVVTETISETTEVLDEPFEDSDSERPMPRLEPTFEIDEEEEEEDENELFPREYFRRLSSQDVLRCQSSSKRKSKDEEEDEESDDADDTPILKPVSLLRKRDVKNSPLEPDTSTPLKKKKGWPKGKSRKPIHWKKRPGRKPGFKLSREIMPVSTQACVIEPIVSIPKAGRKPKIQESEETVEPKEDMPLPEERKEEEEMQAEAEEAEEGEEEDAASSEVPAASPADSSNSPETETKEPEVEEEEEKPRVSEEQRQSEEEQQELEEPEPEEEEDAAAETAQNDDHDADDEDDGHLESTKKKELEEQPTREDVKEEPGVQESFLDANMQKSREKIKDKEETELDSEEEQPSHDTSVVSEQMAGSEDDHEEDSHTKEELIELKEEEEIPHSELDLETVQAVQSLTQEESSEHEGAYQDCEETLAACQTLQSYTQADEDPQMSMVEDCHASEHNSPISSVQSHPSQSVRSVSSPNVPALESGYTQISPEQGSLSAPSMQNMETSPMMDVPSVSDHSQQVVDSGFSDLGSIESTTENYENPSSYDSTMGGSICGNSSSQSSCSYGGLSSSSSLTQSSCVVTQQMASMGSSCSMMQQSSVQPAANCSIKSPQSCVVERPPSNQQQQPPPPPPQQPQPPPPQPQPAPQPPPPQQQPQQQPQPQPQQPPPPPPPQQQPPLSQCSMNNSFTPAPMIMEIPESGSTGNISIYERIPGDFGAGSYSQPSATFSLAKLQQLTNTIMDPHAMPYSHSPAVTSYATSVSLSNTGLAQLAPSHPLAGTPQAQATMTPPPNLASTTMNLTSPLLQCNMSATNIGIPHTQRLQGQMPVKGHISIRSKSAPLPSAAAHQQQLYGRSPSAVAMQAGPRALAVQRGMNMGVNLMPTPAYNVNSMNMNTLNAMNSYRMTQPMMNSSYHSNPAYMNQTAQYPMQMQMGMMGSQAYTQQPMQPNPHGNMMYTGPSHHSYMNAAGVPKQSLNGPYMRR
MOZ-KAT6A, sequence (Q92794 other isoform, or with tags, fused parts or gaps): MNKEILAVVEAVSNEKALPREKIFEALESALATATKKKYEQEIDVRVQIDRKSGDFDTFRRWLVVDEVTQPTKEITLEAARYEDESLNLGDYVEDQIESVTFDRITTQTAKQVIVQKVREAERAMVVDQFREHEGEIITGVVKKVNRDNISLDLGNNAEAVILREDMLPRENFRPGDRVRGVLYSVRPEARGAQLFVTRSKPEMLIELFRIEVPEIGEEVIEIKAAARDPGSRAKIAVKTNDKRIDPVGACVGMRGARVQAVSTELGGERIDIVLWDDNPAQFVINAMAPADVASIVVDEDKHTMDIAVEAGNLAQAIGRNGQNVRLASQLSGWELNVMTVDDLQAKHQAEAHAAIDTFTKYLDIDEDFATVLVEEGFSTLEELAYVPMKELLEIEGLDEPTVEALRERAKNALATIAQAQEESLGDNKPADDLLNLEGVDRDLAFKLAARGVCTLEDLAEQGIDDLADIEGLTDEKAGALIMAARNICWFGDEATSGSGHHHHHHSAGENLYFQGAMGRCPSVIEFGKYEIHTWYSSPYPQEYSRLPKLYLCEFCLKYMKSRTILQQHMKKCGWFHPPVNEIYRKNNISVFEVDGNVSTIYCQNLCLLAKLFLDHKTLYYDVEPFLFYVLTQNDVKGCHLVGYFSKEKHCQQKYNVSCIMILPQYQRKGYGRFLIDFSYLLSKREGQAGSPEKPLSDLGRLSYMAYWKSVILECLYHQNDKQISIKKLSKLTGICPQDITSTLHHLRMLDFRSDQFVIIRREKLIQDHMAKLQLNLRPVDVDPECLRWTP
TIP60-KAT5, sequence (Q92993 other isoform, or with tags, fused parts or gaps): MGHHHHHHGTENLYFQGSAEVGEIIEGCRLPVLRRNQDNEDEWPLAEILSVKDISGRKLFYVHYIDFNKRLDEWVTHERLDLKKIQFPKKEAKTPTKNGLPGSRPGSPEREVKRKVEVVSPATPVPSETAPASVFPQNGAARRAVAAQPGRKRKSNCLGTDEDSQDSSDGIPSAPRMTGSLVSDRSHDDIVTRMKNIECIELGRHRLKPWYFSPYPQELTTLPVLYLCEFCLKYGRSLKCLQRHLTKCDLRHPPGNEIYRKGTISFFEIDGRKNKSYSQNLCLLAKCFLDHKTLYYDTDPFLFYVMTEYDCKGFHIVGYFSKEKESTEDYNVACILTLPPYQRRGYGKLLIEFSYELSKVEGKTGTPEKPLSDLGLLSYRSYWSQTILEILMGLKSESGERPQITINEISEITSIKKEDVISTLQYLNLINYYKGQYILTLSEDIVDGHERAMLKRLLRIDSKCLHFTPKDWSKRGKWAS

| inhibition at 1 µM [1] [%] | SMILES | IC50 [1] [nM] | Ki [1] [nM] | IC50 [2] [nM] | IC50 [3] [nM] | IC50 [4] [nM] |
| --- | --- | --- | --- | --- | --- | --- |
| 68 | COc1cc(Cn2cccn2)cc2onc(NS(=O)(=O)CCC3CCOC3)c12 (stereo not shown) [Example 112] |  |  |  |  |  |
|  | COc1cc(Cn2cccn2)cc2onc(NS(=O)(=O)CC(C)OCC3CCCC3)c12 (stereo not shown) [Example 127] | 36 |  |  |  |  |
| 52 | COc1cc(Cn2cccn2)cc2onc(NS(=O)(=O)CC3(C)CC3)c12 [Example 39] |  |  |  |  |  |
|  | COc1cc(Cn2cccn2)cc2onc(NS(=O)(=O)CC3CCCCO3)c12 (single isomer, unassigned; (-)) [Example 2, (−)-N-{4-methoxy-6-[(1H-pyrazol-1-yl)methyl]-1,2-benzoxazol-3-yl}-1-(oxan-2-yl)methanesulfonamide] | 270 |  |  |  |  |
| 70 | COc1cc(Cn2cccn2)cc2onc(NS(=O)(=O)C3CCCC3C)c12 (stereo not shown) [Example 72] |  |  |  |  |  |
| 42 | COc1cc(Cn2cccn2)cc2onc(NS(=O)(=O)CC3CC(C)C3)c12 (stereo not shown) [Example 60] |  |  |  |  |  |

| SMILES | inhibition at 1 µM [1] [%] | IC50 [1] [nM] | Ki [1] [nM] | IC50 [2] [nM] | IC50 [3] [nM] | IC50 [4] [nM] |
| --- | --- | --- | --- | --- | --- | --- |
| COc1cc(Cn2cccn2)cc2onc(NS(=O)(=O)CC3CCCCC3)c12 [Example 123] | 85 | 28.9 | 5.44 | 9040 | 15 | 1260 |
| COc1cc(Cn2cccn2)cc2onc(NS(=O)(=O)C3CCCCC3)c12 [Example 124] | 88 | 117 |  | 2400 | 30 | 440 |
| COc1cc(Cn2cccn2)cc2onc(NS(=O)(=O)CCC3CC3)c12 [Example 23] | 92 |  | 31.6 |  |  |  |
